This is an account of results in article PMC2828546, “Screening-based discovery of drug-like O-GlcNAcase inhibitor scaffolds” (Febs Letters, 2010).

Assay [1] has as its target T1, CpOGA (Clostridium perfringens, UniProt Q0TR53). As to the kind of experiment: biochemical. The settings on record: read-out: inhibition of CpOGA in the screen.
In assay [2] the target is T2, hOGA (Homo sapiens, UniProt O60502).
T2 construct: made in house
T2 sequence (O60502 1-916): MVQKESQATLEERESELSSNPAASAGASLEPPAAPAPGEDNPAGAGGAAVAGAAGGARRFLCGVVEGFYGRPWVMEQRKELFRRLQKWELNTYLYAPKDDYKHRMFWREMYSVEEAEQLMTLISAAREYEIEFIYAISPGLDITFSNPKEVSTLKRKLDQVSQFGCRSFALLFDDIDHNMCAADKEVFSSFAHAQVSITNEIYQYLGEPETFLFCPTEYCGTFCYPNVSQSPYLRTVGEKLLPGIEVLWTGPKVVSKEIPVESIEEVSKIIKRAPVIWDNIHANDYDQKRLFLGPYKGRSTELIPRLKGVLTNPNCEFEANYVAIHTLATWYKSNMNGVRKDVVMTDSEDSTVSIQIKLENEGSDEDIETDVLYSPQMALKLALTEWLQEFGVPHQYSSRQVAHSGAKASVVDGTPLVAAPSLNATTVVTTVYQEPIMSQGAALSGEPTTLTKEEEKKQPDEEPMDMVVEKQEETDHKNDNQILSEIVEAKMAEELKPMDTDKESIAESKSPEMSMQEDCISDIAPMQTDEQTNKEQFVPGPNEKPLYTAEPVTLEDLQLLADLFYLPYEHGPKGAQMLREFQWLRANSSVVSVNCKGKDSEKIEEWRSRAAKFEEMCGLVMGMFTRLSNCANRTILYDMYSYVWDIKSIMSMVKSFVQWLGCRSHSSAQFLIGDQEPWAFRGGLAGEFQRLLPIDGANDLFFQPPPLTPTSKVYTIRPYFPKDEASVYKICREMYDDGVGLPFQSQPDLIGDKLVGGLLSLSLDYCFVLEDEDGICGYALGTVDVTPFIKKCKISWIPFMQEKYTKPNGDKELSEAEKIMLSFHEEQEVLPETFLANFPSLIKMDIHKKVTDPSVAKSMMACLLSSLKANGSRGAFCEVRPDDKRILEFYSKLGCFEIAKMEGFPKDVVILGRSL
Put plainly: hOGA inhibition, fluorogenic 4MU-NAG substrate. In kind it is biochemical. Particulars: for IC50: 80 μM 4MU-GlcNAc (Km), 60 min, pH 5.7; for hOGA BEI (Binding Efficiency Index): BEI = -log(Ki)/M, M in kDa, Ki from IC50 by Cheng-Prusoff; for Selectivity (HexA/B/hOGA): ratio of HexA/B to hOGA inhibition constants.

For another assay, the target named is human hexosaminidase A/B. As to the kind of experiment: HexA/B inhibition, fluorogenic 4MU-NAG substrate. The settings on record: 230 μM substrate (Km), 15 min, pH 5.7. In kind it is biochemical. The protocol: Further kinetic experiments to determine the mode of inhibition were carried out according to the procedure described previously. […] IC50 measurements with CpOGA, hOGA and a mixture of human hexosaminidase A/B activities (Sigma A6152) against the compounds were performed using the fluorogenic 4MU-NAG substrate and standard reaction mixtures as described previously with some changes [[39,31,40]]. Standard reaction mixtures (50 μl) contained 0.2 nM CpOGA, 2 nM hOGA or 50 μ units unit/ml HexA/B in McIlvaine buffer (0.2 M Na2HPO4 mixed with 0.1 M citric acid to pH 5.7) supplemented with 0.1 mg/ml BSA. […] The reactions were run at room temperature for 7 min (CpOGA), 60 min (hOGA) or 15 min (HexA/B).

Assay [3] deals with T1, CpOGA. As to the kind of experiment: biochemical.
For assay [4], the target named is T1, CpOGA. In kind it is biochemical.
Assay [5] deals with T2, hOGA. Particulars: cited from earlier work.
In assay [6] the target is T1, CpOGA. The settings on record: read-out: CpOGA Ki; cited from earlier work.
The target of assay [7] is T1, CpOGA. The settings on record: read-out: CpOGA IC50; cited from earlier work.

Where “and” joins values, the source holds several entries; their conditions need not be identical. Equal values may be shown once. Entries after “also recorded” stand apart in the source; their conditions may differ. Read-outs that look alike come from different tables or passages of the source.

T1 sequence (Q0TR53 31-624 limits assumed): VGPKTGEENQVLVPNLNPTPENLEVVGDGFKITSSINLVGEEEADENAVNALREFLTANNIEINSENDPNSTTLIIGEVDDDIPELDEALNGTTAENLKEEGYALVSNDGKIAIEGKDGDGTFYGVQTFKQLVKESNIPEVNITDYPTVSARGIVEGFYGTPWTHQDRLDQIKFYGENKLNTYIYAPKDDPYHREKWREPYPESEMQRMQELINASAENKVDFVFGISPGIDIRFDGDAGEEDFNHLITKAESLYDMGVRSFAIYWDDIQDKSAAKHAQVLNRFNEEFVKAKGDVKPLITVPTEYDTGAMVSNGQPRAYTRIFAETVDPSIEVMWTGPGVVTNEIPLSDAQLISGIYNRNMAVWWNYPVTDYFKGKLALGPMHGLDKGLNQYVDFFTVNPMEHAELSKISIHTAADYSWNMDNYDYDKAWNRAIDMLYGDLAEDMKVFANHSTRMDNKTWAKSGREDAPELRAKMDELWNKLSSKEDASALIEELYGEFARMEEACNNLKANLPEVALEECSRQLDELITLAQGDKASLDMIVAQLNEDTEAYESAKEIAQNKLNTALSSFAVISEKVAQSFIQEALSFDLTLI

Take `c1ccc(CNc2ncnc3nc[nH]c23)cc1` [6-benzylaminopurine]: the inhibition at 30.2 µM on CpOGA [1] amounted to 30%.
`CC(=O)Nc1nnc(S(N)(=O)=O)s1` [Acetazolamide, acetazolamide]: at hOGA [2] (2 nM hOGA, read-out: hOGA IC50), the IC50 stood at 47 ± 0.1 µM.
Take `O=C1CC2(CCCC2)CC(=O)N1CCCCN1CCN(c2ncccn2)CC1` [Buspirone, buspirone]: the IC50 on hOGA [2] (2 nM hOGA, read-out: hOGA IC50) came out at 25 ± 0.1 µM; at human hexosaminidase A/B, 47 ± 3 µM.
Take `Cn1c(=O)c2c(ncn2CC(O)CO)n(C)c1=O` (centres unmarked) [Diprophylline, diprophylline]: the IC50 against CpOGA [3] is 60 ± 10 µM; on hOGA [2] (2 nM hOGA, read-out: hOGA IC50), above 100 µM; at human hexosaminidase A/B, 200 ± 30 µM. Also, the “inhibition mode against CpOGA” value on CpOGA [4] is on record as “compete for binding to the same CpOGA active site; also recorded: competitive inhibitor”. At hOGA [2], the “hOGA BEI (Binding Efficiency Index)” value stood at 16. For the same compound, the “Selectivity (HexA/B/hOGA)” value at hOGA [2] is on record as 1.6.
On to `CC(=O)N1CCN(c2ccc(OCC3COC(Cn4ccnc4)(c4ccc(Cl)cc4Cl)O3)cc2)CC1` (centres unmarked) [Ketoconazole, ketoconazole], for which the “inhibition mode against CpOGA” value at CpOGA [4] was “compete for binding to the same CpOGA active site”. In addition, the IC50 was 4 µM and 4.3 µM on hOGA [2] (2 nM hOGA, read-out: hOGA IC50); 11 ± 1 µM on human hexosaminidase A/B.
Turning to `CCCC1=N[C@@H]2[C@@H](O)[C@H](O)[C@@H](CO)O[C@@H]2S1` [NButGT], on hOGA [5] (thiazoline derivative, selectivity for hOGA), the “selectivity for hOGA” value is 600 fold.
On to `CNc1ncnc2nc[nH]c12` [N^6-methyladenine], for which the IC50 was 4 ± 0.3 µM on hOGA [2] (2 nM hOGA, read-out: hOGA IC50) and 300 µM against human hexosaminidase A/B.
In the case of `CC(=O)N[C@H]1/C(=N/OC(=O)Nc2ccccc2)O[C@H](CO)[C@@H](O)[C@@H]1O` [PUGNAc], at CpOGA [6], the Ki is 0.005 µM.
For `CC1CCC(NC(=O)N(CCCl)N=O)CC1` (centres unmarked) [Semustine, semustine], the “inhibition mode against CpOGA” value against CpOGA [4] was “compete for binding to the same CpOGA active site”. Moreover, on hOGA [2], the “hOGA BEI (Binding Efficiency Index)” value amounted to 16 and the “Selectivity (HexA/B/hOGA)” value is reported as 9. At hOGA [2] (hOGA IC50, 2 nM hOGA), this compound gave an IC50 above 100 µM. At human hexosaminidase A/B, this compound had an IC50 of 2500 µM.
For the compound `CN(N=O)C(=O)N[C@H]1C(O)O[C@H](CO)[C@@H](O)[C@@H]1O` (some centres unmarked) [Streptozotocin, streptozotocin], at hOGA [2], the “hOGA BEI (Binding Efficiency Index)” value amounted to 11 and the “Selectivity (HexA/B/hOGA)” value was determined as 30. For the same compound, on CpOGA [7], the concentration for half-maximal inhibition (IC50) was 30 µM. Further, the Ki at hOGA [5] (Ki value from literature, read-out: hOGA Ki (printed in hOGA IC50 column)) is 1500 µM.

As a reminder, the inhibition is the change of the read-out against control, counted positive when it falls. In general, IC50 refers to the concentration that inhibits the measured activity by half. For orientation: Ki means the dissociation constant of the complex between target and ligand, obtained from inhibition or displacement.
